From ChEMBL document CHEMBL2046269, “Phthalide and isocoumarin derivatives produced by an Acremonium sp. isolated from a mangrove Rhizophora apiculata” (2012)
≈ marks a conversion by molar mass, not a printed value.

Tested on: Candida albicans
Experiment: Antifungal activity against Candida albicans NCPF 3153 after 15 hrs by colorimetric broth microdilution test
Assay type: functional
Conditions: NCPF 3153, 15 h

C[C@H]1CCC/C=C/[C@@H]2C[C@H](O)C[C@H]2[C@H](O)/C=C/C(=O)O1 [BREFELDIN A]
MIC: 32 µg/mL (≈ 114 µM)
